According to PMC9518264, “Design and synthesis of novel quinazolinone-based derivatives as EGFR inhibitors with antitumor activity” (Journal of Enzyme Inhibition and Medicinal Chemistry, 2022):

Columns and labels:
[1] = tested on: NCI/ADR-RES; assay: cells; type: cell-based; conditions: Homo sapiens, 10 μM, read-out: growth inhibition % (GI%)
[2] = tested on: UACC-62; assay: cells; type: cell-based; conditions: Homo sapiens; UACC-62; 10 μM; read-out: growth inhibition % (GI%)
[3] = tested on: HOP-92; assay: cells; type: cell-based; conditions: Homo sapiens; HOP-92; 10 μM; read-out: growth inhibition % (GI%)
[4] = tested on: TK-10; assay: cells; type: cell-based; conditions: Homo sapiens; TK-10; 10 μM; read-out: growth inhibition % (GI%)
[5] = tested on: DU-145; assay: cells; type: cell-based; conditions: Homo sapiens; DU-145; 10 μM; read-out: growth inhibition % (GI%)
[6] = tested on: RPMI-8226; assay: cells; type: cell-based; conditions: Homo sapiens; RPMI-8226; 10 μM; read-out: growth inhibition % (GI%)
[7] = tested on: HOP-62; assay: cells; type: cell-based; conditions: Homo sapiens; HOP-62; 10 μM; read-out: growth inhibition % (GI%)
[8] = tested on: OVCAR-4; assay: cells; type: cell-based; conditions: Homo sapiens; OVCAR-4; 10 μM; read-out: growth inhibition % (GI%)
[9] = tested on: OVCAR-5; assay: cells; type: cell-based; conditions: Homo sapiens; OVCAR-5; 10 μM; read-out: growth inhibition % (GI%)
[10] = tested on: SN12C; assay: cells; type: cell-based; conditions: Homo sapiens, 10 μM, read-out: growth inhibition % (GI%)
[11] = tested on: SF-539; assay: cells; type: cell-based; conditions: Homo sapiens; SF-539; 10 μM; read-out: growth inhibition % (GI%)
[12] = tested on: NCI-H460; assay: cells; type: cell-based; conditions: Homo sapiens; NCI-H460; 10 μM; read-out: growth inhibition % (GI%)
[13] = tested on: COLO-205; assay: cells; type: cell-based; conditions: Homo sapiens; COLO-205; 10 μM; read-out: growth inhibition % (GI%)
[14] = tested on: SNB-19; assay: cells; type: cell-based; conditions: Homo sapiens; SNB-19; 10 μM; read-out: growth inhibition % (GI%)
[15] = tested on: ACHN; assay: cells; type: cell-based; conditions: Homo sapiens, 10 μM, read-out: growth inhibition % (GI%)
[16] = tested on: BT-549; assay: cells; type: cell-based; conditions: Homo sapiens; BT-549; 10 μM; read-out: growth inhibition % (GI%)
[17] = tested on: EKVX; assay: cells; type: cell-based; conditions: Homo sapiens, 10 μM, read-out: growth inhibition % (GI%)
[18] = tested on: MCF7; assay: cells; type: cell-based; conditions: Homo sapiens; MCF7; 10 μM; read-out: growth inhibition % (GI%)
[19] = tested on: UACC-257; assay: cells; type: cell-based; conditions: Homo sapiens; UACC-257; 10 μM; read-out: growth inhibition % (GI%)
[20] = tested on: HCC-2998; assay: cells; type: cell-based; conditions: Homo sapiens; HCC-2998; 10 μM; read-out: growth inhibition % (GI%)
[21] = tested on: SW-620; assay: cells; type: cell-based; conditions: Homo sapiens; SW-620; 10 μM; read-out: growth inhibition % (GI%)
[22] = tested on: HCT-15; assay: cells; type: cell-based; conditions: Homo sapiens; HCT-15; 10 μM; read-out: growth inhibition % (GI%)
[23] = tested on: SR; assay: cells; type: cell-based; conditions: Homo sapiens, 10 μM, read-out: growth inhibition % (GI%)
[24] = tested on: panel of 60 tumour cell lines; assay: NCI 60 cell line antiproliferative screening (SRB), whole panel or subpanels (means, ranges, words); type: cell-based, human
[25] = tested on: SK-MEL-28; assay: cells; type: cell-based; conditions: Homo sapiens; SK-MEL-28; 10 μM; read-out: growth inhibition % (GI%)
[26] = tested on: PC-3; assay: cells; type: cell-based; conditions: Homo sapiens; PC-3; 10 μM; read-out: growth inhibition % (GI%)
[27] = tested on: OVCAR-3; assay: NCI 60 cell line antiproliferative screening (SRB), Ovarian cancer; conditions: Homo sapiens, OVCAR-3, read-out: growth inhibition % (GI%)
[28] = tested on: A549/ATCC; assay: cells; type: cell-based; conditions: Homo sapiens; A549/ATCC; 10 μM; read-out: growth inhibition % (GI%)
[29] = tested on: MALME-3M; assay: cells; type: cell-based; conditions: Homo sapiens; MALME-3M; 10 μM; read-out: growth inhibition % (GI%)
[30] = tested on: HCT-116; assay: cells; type: cell-based; conditions: Homo sapiens; HCT-116; 10 μM; read-out: growth inhibition % (GI%)
[31] = tested on: SK-MEL-2; assay: cells; type: cell-based; conditions: Homo sapiens; SK-MEL-2; 10 μM; read-out: growth inhibition % (GI%)
[32] = tested on: NCI-H226; assay: cells; type: cell-based; conditions: Homo sapiens; NCI-H226; 10 μM; read-out: growth inhibition % (GI%)
[33] = tested on: UO-31; assay: cells; type: cell-based; conditions: Homo sapiens; UO-31; 10 μM; read-out: growth inhibition % (GI%)
[34] = tested on: 786-0; assay: cells; type: cell-based; conditions: Homo sapiens; 786-0; 10 μM; read-out: growth inhibition % (GI%)
[35] = tested on: HT29; assay: cells; type: cell-based; conditions: Homo sapiens, HT-29; HT29; 10 μM; read-out: growth inhibition % (GI%)
[36] = tested on: SK-MEL-5; assay: cells; type: cell-based; conditions: Homo sapiens; SK-MEL-5; 10 μM; read-out: growth inhibition % (GI%)
[37] = tested on: SNB-75; assay: cells; type: cell-based; conditions: Homo sapiens; SNB-75; 10 μM; read-out: growth inhibition % (GI%)
[38] = tested on: MOLT-4; assay: cells; type: cell-based; conditions: Homo sapiens; MOLT-4; 10 μM; read-out: growth inhibition % (GI%)
[39] = tested on: HL-60(TB); assay: cells; type: cell-based; conditions: Homo sapiens; HL-60(TB); 10 μM; read-out: growth inhibition % (GI%)
[40] = tested on: MDA-MB-468; assay: NCI 60 cell line antiproliferative screening (SRB), Breast cancer; conditions: Homo sapiens, MDA-MB-468, read-out: growth inhibition % (GI%)
[41] = tested on: A498; assay: cells; type: cell-based; conditions: Homo sapiens; A498; 10 μM; read-out: growth inhibition % (GI%)
[42] = tested on: NCI-H322M; assay: cells; type: cell-based; conditions: Homo sapiens, 10 μM, read-out: growth inhibition % (GI%)
[43] = tested on: CCRF-CEM; assay: cells; type: cell-based; conditions: Homo sapiens, 10 μM, read-out: growth inhibition % (GI%)
[44] = tested on: T-47D; assay: cells; type: cell-based; conditions: Homo sapiens, T47D; T-47D; 10 μM; read-out: growth inhibition % (GI%)
[45] = tested on: U251; assay: cells; type: cell-based; conditions: Homo sapiens, U-251; U251; 10 μM; read-out: growth inhibition % (GI%)
[46] = tested on: NCI-H522; assay: cells; type: cell-based; conditions: Homo sapiens; NCI-H522; 10 μM; read-out: growth inhibition % (GI%)
[47] = tested on: SF-295; assay: cells; type: cell-based; conditions: Homo sapiens; SF-295; 10 μM; read-out: growth inhibition % (GI%)

Structure (SMILES): O=C(CSc1nc2ccccc2c(=O)n1-c1ccc(Cl)cc1)NN=Cc1ccc(Oc2ccc(Br)cc2)cc1 [6e, N'-(4–(4-bromophenoxy)benzylidene)-2-((3–(4-chlorophenyl)-4-oxo-3,4-dihydroquinazolin-2-yl)thio)acetohydrazide]
- inhibition at 10 µM [1]: < 15%
- inhibition at 10 µM [2]: < 15%
- inhibition at 10 µM [3]: < 15%
- inhibition at 10 µM [4]: < 15%
- inhibition at 10 µM [5]: < 15%
- inhibition at 10 µM [6]: < 15%
- inhibition at 10 µM [7]: < 15%
- inhibition at 10 µM [8]: < 15%
- inhibition at 10 µM [9]: < 15%
- inhibition at 10 µM [10]: < 15%
- inhibition at 10 µM [11]: < 15%
- inhibition at 10 µM [12]: < 15%
- inhibition at 10 µM [13]: < 15%
- inhibition at 10 µM [14]: < 15%
- inhibition at 10 µM [15]: < 15%
- inhibition at 10 µM [16]: < 15%
- inhibition at 10 µM [17]: < 15%
- inhibition at 10 µM [18]: < 15%
- inhibition at 10 µM [19]: < 15%
- inhibition at 10 µM [20]: < 15%
- inhibition at 10 µM [21]: < 15%
- inhibition at 10 µM [22]: < 15%
- inhibition at 10 µM [23]: < 15%
- antiproliferative activity against all tested cell lines ([24]; 10 μM single dose): abolishing the antiproliferative activity
- inhibition at 10 µM ([24]; Homo sapiens, 60 cell, mean over the cell line panel, 10 μM, read-out: Mean growth inhibition % (mean GI%)): < 0%
- inhibition at 10 µM [25]: < 15%
- inhibition at 10 µM [26]: < 15%
- inhibition at 10 µM [27]: < 15%
- inhibition at 10 µM [28]: < 15%
- inhibition at 10 µM [29]: < 15%
- inhibition at 10 µM [30]: < 15%
- inhibition at 10 µM [31]: < 15%
- inhibition at 10 µM [32]: < 15%
- inhibition at 10 µM [33]: 20.8%
- inhibition at 10 µM [34]: < 15%
- inhibition at 10 µM [35]: < 15%
- inhibition at 10 µM [36]: < 15%
- inhibition at 10 µM [37]: < 15%
- inhibition at 10 µM [38]: < 15%
- inhibition at 10 µM [39]: < 15%
- inhibition at 10 µM [40]: < 15%
- inhibition at 10 µM [41]: 15.7%
- inhibition at 10 µM [42]: < 15%
- inhibition at 10 µM [43]: < 15%
- inhibition at 10 µM [44]: < 15%
- inhibition at 10 µM [45]: < 15%
- inhibition at 10 µM [46]: 13.4%
- inhibition at 10 µM [47]: < 15%
